Experimental data as given in ChEMBL document CHEMBL4402598, “Design and Synthesis of Bitopic 2-Phenylcyclopropylmethylamine (PCPMA) Derivatives as Selective Dopamine D3 Receptor Ligands” (J Med Chem, 2020).

How the values were obtained:
[1] = biological target: D(2) dopamine receptor (Homo sapiens, UniProt P14416); test: Displacement of [3H]-N-methylspiperone from recombinant human D2 receptor stably expressed in fibroblast cell membranes measured after 90 mins by microbeta scintillation counting method
[2] = biological target: T1, 5-hydroxytryptamine receptor 2C (Homo sapiens, UniProt P28335); test: Displacement of [3H]-Mesulergine from recombinant human 5HT2C receptor expressed in HEKT cell membranes measured after 90 mins by microbeta scintillation counting method
T1 sequence (P28335 whole entry): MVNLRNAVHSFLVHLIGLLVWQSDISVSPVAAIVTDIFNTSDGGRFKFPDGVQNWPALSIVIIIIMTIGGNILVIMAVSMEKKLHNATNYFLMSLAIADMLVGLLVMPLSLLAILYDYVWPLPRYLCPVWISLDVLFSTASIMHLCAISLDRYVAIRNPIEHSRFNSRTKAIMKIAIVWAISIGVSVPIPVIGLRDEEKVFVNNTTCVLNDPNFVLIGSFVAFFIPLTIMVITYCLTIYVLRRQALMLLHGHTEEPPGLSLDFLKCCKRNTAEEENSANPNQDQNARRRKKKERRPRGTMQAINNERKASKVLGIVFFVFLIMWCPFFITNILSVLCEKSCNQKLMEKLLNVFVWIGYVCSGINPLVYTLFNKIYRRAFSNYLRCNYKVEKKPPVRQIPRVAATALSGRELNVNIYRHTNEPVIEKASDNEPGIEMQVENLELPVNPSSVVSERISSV

[3] = biological target: D(1B) dopamine receptor (Homo sapiens, UniProt P21918); test: Displacement of [3H]-SCH23390 from recombinant human D5 receptor transiently expressed in HEKT cell membranes measured after 90 mins by microbeta scintillation counting method
[4] = biological target: T2, D(4) dopamine receptor (Homo sapiens, UniProt P21917); test: Displacement of [3H]-N-methylspiperone from recombinant human D4 receptor stably expressed in HEK cell membranes measured after 90 mins by microbeta scintillation counting method
T2 sequence (P21917 whole entry): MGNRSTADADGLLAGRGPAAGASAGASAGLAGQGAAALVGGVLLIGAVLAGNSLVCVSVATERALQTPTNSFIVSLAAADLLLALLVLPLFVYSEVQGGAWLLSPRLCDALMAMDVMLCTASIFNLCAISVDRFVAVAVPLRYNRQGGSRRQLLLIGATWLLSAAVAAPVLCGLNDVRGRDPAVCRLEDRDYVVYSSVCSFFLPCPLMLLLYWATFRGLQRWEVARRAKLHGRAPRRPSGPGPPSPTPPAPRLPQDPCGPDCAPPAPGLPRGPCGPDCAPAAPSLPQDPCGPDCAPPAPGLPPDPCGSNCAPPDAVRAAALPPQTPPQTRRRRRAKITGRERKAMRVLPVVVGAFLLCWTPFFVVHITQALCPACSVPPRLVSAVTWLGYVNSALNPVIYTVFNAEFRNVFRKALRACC

[5] = biological target: D(3) dopamine receptor (Homo sapiens, UniProt P35462); test: Displacement of [3H]-N-methylspiperone from recombinant human D3 receptor (unknown origin) measured after 90 mins by microbeta scintillation counting method
[6] = biological target: D(1A) dopamine receptor (Homo sapiens, UniProt P21728); test: Displacement of [3H]-SCH23390 from recombinant human D1 receptor transiently expressed in HEKT cell membranes measured after 90 mins by microbeta scintillation counting method
D(1A) dopamine receptor, sequence (P21728 whole entry): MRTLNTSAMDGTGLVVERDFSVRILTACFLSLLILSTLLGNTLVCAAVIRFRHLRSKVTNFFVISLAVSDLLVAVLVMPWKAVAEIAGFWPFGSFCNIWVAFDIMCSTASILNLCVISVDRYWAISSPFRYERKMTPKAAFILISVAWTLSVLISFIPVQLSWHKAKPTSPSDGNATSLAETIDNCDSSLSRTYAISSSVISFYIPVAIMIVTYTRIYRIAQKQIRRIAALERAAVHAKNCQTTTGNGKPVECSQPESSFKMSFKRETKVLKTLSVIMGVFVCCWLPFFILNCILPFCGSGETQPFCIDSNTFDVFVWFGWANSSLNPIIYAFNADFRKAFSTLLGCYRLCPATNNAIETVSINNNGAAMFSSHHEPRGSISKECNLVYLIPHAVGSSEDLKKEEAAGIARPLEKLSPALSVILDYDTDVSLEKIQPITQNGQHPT

D(2) dopamine receptor, sequence (P14416 whole entry): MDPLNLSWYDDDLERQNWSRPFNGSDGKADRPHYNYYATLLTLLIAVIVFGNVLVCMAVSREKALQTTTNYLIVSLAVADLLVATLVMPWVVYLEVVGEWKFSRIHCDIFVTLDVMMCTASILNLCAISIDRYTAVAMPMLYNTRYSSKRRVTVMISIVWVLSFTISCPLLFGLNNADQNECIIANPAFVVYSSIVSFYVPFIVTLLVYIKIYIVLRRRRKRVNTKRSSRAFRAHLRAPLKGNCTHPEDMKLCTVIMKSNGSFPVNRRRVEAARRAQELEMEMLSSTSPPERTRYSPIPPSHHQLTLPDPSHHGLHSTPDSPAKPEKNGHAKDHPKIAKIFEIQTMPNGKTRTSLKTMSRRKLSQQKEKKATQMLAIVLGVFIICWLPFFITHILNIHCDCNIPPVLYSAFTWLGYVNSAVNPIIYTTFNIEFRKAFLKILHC
D(3) dopamine receptor, sequence (P35462 whole entry): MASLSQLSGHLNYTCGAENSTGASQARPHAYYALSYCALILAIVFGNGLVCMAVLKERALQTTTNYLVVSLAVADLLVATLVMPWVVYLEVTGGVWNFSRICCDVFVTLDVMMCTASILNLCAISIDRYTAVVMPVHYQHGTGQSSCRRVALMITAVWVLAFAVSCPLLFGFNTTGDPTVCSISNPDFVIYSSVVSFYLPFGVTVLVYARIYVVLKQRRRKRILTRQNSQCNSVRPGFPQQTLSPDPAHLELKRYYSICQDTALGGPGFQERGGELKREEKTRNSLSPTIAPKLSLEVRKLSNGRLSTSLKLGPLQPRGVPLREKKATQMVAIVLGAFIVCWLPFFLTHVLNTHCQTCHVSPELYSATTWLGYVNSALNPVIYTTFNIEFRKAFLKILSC
D(1B) dopamine receptor, sequence (P21918 whole entry): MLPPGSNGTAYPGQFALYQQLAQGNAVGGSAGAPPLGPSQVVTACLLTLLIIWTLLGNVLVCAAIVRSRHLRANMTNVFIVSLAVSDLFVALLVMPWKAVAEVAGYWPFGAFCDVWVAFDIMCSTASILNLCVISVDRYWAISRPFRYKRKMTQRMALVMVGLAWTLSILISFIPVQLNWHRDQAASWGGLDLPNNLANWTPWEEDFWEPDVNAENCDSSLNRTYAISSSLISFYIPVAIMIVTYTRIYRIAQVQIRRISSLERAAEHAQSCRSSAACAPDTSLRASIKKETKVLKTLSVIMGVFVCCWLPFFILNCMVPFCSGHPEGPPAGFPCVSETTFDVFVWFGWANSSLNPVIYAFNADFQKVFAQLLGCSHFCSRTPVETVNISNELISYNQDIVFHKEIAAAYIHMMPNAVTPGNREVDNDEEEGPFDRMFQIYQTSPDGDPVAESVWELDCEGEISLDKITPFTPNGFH

CCCN(CCCCNC(=O)c1ccc2ccccc2c1)CC1CC1c1cccc(F)c1 (stereo not given)
Ki [1]: 4820 nM
Ki [2]: 165 nM
Ki [3]: > 5000 nM
Ki [4]: 1300 nM
Ki [5]: 26.7 nM
Ki [6]: 1310 nM

CCCN(CCCCNC(=O)c1ccc2ccccc2c1)CC1CC1c1ccc(C(F)(F)F)cc1 (stereo not given)
Ki [1]: > 5000 nM
Ki [2]: 1260 nM
Ki [3]: 5800 nM
Ki [4]: 215 nM
Ki [5]: 43 nM
Ki [6]: 1710 nM

CCN(CCCSc1nnc(-c2ccccc2)n1C)CC1CC1c1cc(F)ccc1OCCF (stereo not given)
Ki [1]: 845 nM
Ki [3]: 2000 nM
Ki [4]: 179 nM
Ki [5]: 113 nM
Ki [6]: 584 nM

CCOc1ccc(F)cc1C1CC1CN(CC)CCCSc1nnc(-c2ccccc2)n1C (stereo not given)
Ki [1]: 380 nM
Ki [3]: 1580 nM
Ki [4]: 101 nM
Ki [5]: 55 nM
Ki [6]: 1150 nM

CCCN(CCCCNC(=O)c1ccc(-c2ccccn2)cc1)CC1CC1c1cccc(F)c1 (stereo not given)
Ki [1]: > 5000 nM
Ki [2]: 1340 nM
Ki [3]: > 5000 nM
Ki [4]: 2220 nM
Ki [5]: 45.4 nM
Ki [6]: 2910 nM

CCN(CCCCNC(=O)c1ccc2ccccc2c1)CC1CC1c1cc(F)ccc1OC (stereo not given)
Ki [1]: 407 nM
Ki [2]: 57.5 nM
Ki [3]: 1720 nM
Ki [4]: 385 nM
Ki [5]: 15 nM
Ki [6]: 986 nM

CCCN(CCCCNC(=O)c1cc2ccccc2[nH]1)CC1CC1c1cccc(Cl)c1 (stereo not given)
Ki [1]: 3490 nM
Ki [2]: 132 nM
Ki [3]: > 5000 nM
Ki [4]: 878 nM
Ki [5]: 11.1 nM
Ki [6]: 992 nM

CCCN(CCCCNC(=O)c1ccc2ccccc2c1)CC1CC1c1cc(F)ccc1OC (stereo not given)
Ki [1]: 1080 nM
Ki [2]: 63.1 nM
Ki [3]: 2200 nM
Ki [4]: 844 nM
Ki [5]: 14.5 nM
Ki [6]: 967 nM

CCCN(CCCCNC(=O)c1ccc(-c2ccccn2)cc1)CC1CC1c1cc(Cl)ccc1OC (stereo not given)
Ki [1]: 2100 nM
Ki [2]: 136 nM
Ki [3]: > 5000 nM
Ki [4]: 1830 nM
Ki [5]: 39.4 nM
Ki [6]: > 5000 nM

CCCN(CCCCNC(=O)c1ccc2ccccc2c1)CC1CC1c1cc(Cl)ccc1OC (stereo not given)
Ki [1]: 1120 nM
Ki [2]: 85 nM
Ki [3]: 1100 nM
Ki [4]: 945 nM
Ki [5]: 26.9 nM
Ki [6]: 930 nM

CCCN(CCCCNC(=O)c1ccc(-c2ccccn2)cc1)CC1CC1c1ccc(F)cc1 (stereo not given)
Ki [1]: > 5000 nM
Ki [2]: 2170 nM
Ki [3]: > 5000 nM
Ki [4]: 2880 nM
Ki [5]: 106 nM
Ki [6]: 3630 nM

CCOc1ccc(F)cc1C1CC1CN(C)CCCSc1nnc(-c2ccccc2)n1C (stereo not given)
Ki [1]: > 5000 nM
Ki [3]: > 5000 nM
Ki [4]: 989 nM
Ki [5]: 550 nM
Ki [6]: 1120 nM

CCCN(CCCCNC(=O)c1ccc2ccccc2c1)CC1CC1c1ccc(Cl)cc1 (stereo not given)
Ki [1]: 4610 nM
Ki [2]: 179 nM
Ki [3]: 6110 nM
Ki [4]: 1590 nM
Ki [5]: 32.6 nM
Ki [6]: 509 nM

CCCN(CCCCNC(=O)c1ccc(-c2ccccn2)cc1)CC1CC1c1ccc(C(F)(F)F)cc1 (stereo not given)
Ki [1]: > 5000 nM
Ki [2]: 2360 nM
Ki [3]: 7700 nM
Ki [4]: 2170 nM
Ki [5]: 23.4 nM
Ki [6]: 1420 nM

CCCN(CCCCNC(=O)c1cc2ccccc2[nH]1)CC1CC1c1ccc(Cl)cc1 (stereo not given)
Ki [1]: 3160 nM
Ki [2]: 137 nM
Ki [3]: 9290 nM
Ki [4]: 510 nM
Ki [5]: 25.7 nM
Ki [6]: 649 nM

COc1ccc(Cl)cc1C1CC1CN(CCCSc1nnc(-c2ccccc2)n1C)CC1CC1 (stereo not given)
Ki [1]: 216 nM
Ki [2]: 274 nM
Ki [3]: > 5000 nM
Ki [4]: 163 nM
Ki [5]: 23.7 nM
Ki [6]: 636 nM

COc1ccc(F)cc1C1CC1CNCCCSc1nnc(-c2ccccc2)n1C (stereo not given)
Ki [1]: 253 nM
Ki [3]: 926 nM
Ki [4]: 133 nM
Ki [5]: 89.8 nM
Ki [6]: 631 nM

COc1ccc(F)cc1C1CC1CN(C)CCCSc1nnc(-c2ccccc2)n1C (stereo not given)
Ki [1]: 324 nM
Ki [3]: 1000 nM
Ki [4]: 85.1 nM
Ki [5]: 84.5 nM
Ki [6]: 794 nM

CCCN(CCCCNC(=O)c1ccc2ccccc2c1)CC1CC1c1cccc(Cl)c1 (stereo not given)
Ki [1]: 4010 nM
Ki [2]: 136 nM
Ki [3]: 8670 nM
Ki [4]: 1320 nM
Ki [5]: 15.5 nM
Ki [6]: 940 nM

CCCN(CCCCNC(=O)c1cc2ccccc2[nH]1)CC1CC1c1cc(F)ccc1OC (stereo not given)
Ki [1]: 507 nM
Ki [2]: 68 nM
Ki [3]: 789 nM
Ki [4]: 376 nM
Ki [5]: 11.2 nM
Ki [6]: 871 nM

CCN(CCCCNC(=O)c1ccc2ccccc2c1)CC1CC1c1cc(Cl)ccc1OC (stereo not given)
Ki [1]: 408 nM
Ki [2]: 49 nM
Ki [3]: 571 nM
Ki [4]: 553 nM
Ki [5]: 23.4 nM
Ki [6]: 1980 nM

CCCN(CCCCNC(=O)c1ccc(-c2ccccn2)cc1)CC1CC1c1ccc(Cl)cc1 (stereo not given)
Ki [1]: > 5000 nM
Ki [2]: 284 nM
Ki [3]: 8840 nM
Ki [4]: 1410 nM
Ki [5]: 17.6 nM
Ki [6]: 1310 nM

Cn1c(SCCCNCC2CC2c2cc(F)ccc2OCCF)nnc1-c1ccccc1 (stereo not given)
Ki [1]: 1500 nM
Ki [3]: 1080 nM
Ki [4]: 962 nM
Ki [5]: 525 nM
Ki [6]: 369 nM

CCCN(CCCCNC(=O)c1ccc2ccccc2c1)CC1CC1c1ccc(F)cc1 (stereo not given)
Ki [1]: 5620 nM
Ki [2]: 238 nM
Ki [3]: > 5000 nM
Ki [4]: 2170 nM
Ki [5]: 55.8 nM
Ki [6]: 992 nM

CCN(CCCCNC(=O)c1cc2ccccc2[nH]1)CC1CC1c1cc(F)ccc1OC (stereo not given)
Ki [1]: 380 nM
Ki [2]: 49 nM
Ki [3]: > 5000 nM
Ki [4]: 220 nM
Ki [5]: 23.4 nM
Ki [6]: 1080 nM

CCCN(CCCCNC(=O)c1ccc(-c2ccccn2)cc1)CC1CC1c1cccc(Cl)c1 (stereo not given)
Ki [1]: > 5000 nM
Ki [2]: 898 nM
Ki [3]: 5580 nM
Ki [4]: 2330 nM
Ki [5]: 26.5 nM
Ki [6]: 832 nM

CCCN(CCCCNC(=O)c1cc2ccccc2[nH]1)CC1CC1c1ccc(F)cc1 (stereo not given)
Ki [1]: 5930 nM
Ki [2]: 219 nM
Ki [3]: 10500 nM
Ki [4]: 1610 nM
Ki [5]: 45.7 nM
Ki [6]: 1460 nM

CCCN(CCCCNC(=O)c1cc2ccccc2[nH]1)CC1CC1c1cc(Cl)ccc1OC (stereo not given)
Ki [1]: 1420 nM
Ki [2]: 85.1 nM
Ki [3]: 4230 nM
Ki [4]: 575 nM
Ki [5]: 11.5 nM
Ki [6]: 818 nM

CCN(CCCSc1nnc(-c2ccccc2)n1C)CC1CC1c1cc(Cl)ccc1OC (stereo not given)
Ki [1]: 238 nM
Ki [2]: 203 nM
Ki [3]: > 5000 nM
Ki [4]: 241 nM
Ki [5]: 31.6 nM
Ki [6]: 1510 nM

CCCN(CCCSc1nnc(-c2ccccc2)n1C)CC1CC1c1cc(Cl)ccc1OC (stereo not given)
Ki [1]: 233 nM
Ki [2]: 535 nM
Ki [3]: > 5000 nM
Ki [4]: 130 nM
Ki [5]: 36.7 nM
Ki [6]: 1920 nM

CCCN(CCCCNC(=O)c1cc2ccccc2[nH]1)CC1CC1c1ccc(C(F)(F)F)cc1 (stereo not given)
Ki [1]: > 5000 nM
Ki [2]: 1310 nM
Ki [3]: 8190 nM
Ki [4]: 2070 nM
Ki [5]: 33.1 nM
Ki [6]: 1280 nM

CN(CCCSc1nnc(-c2ccccc2)n1C)CC1CC1c1cc(F)ccc1OCCF (stereo not given)
Ki [1]: 2440 nM
Ki [3]: 2150 nM
Ki [4]: 977 nM
Ki [5]: 562 nM
Ki [6]: 1470 nM

CCOc1ccc(F)cc1C1CC1CNCCCSc1nnc(-c2ccccc2)n1C (stereo not given)
Ki [1]: 661 nM
Ki [3]: 589 nM
Ki [4]: 501 nM
Ki [5]: 219 nM
Ki [6]: 295 nM

CCCN(CCCCNC(=O)c1cc2ccccc2[nH]1)CC1CC1c1cccc(F)c1 (stereo not given)
Ki [1]: 3490 nM
Ki [2]: 106 nM
Ki [3]: > 5000 nM
Ki [4]: 671 nM
Ki [5]: 18.8 nM
Ki [6]: 1100 nM

CCN(CCCSc1nnc(-c2ccccc2)n1C)CC1CC1c1cc(F)ccc1OC (stereo not given)
Ki [1]: 275 nM
Ki [3]: 1850 nM
Ki [4]: 30 nM
Ki [5]: 44 nM
Ki [6]: 1720 nM

CCCN(CCCCNC(=O)c1ccc(-c2ccccn2)cc1)CC1CC1c1cc(F)ccc1OC (racemic)
Ki [1]: 3140 nM
Ki [2]: 53 nM
Ki [3]: > 5000 nM
Ki [4]: 1140 nM
Ki [6]: 1760 nM

CCCN(CCCCNC(=O)c1cc2ccccc2[nH]1)CC1CC1c1cccc(Cl)c1Cl (racemic)
Ki [1]: 1500 nM
Ki [2]: 105 nM
Ki [3]: 3500 nM
Ki [4]: 1130 nM
Ki [6]: 891 nM

CCCN(CCCCNC(=O)c1ccc(-c2ccccn2)cc1)CC1CC1c1cccc(Cl)c1Cl (racemic)
Ki [2]: 97.7 nM
Ki [3]: > 5000 nM
Ki [4]: 2010 nM
Ki [6]: 1650 nM

CCCN(CCCCNC(=O)c1ccc2ccccc2c1)CC1CC1c1cccc(Cl)c1Cl (racemic)
Ki [1]: 2100 nM
Ki [2]: 123 nM
Ki [3]: 4020 nM
Ki [4]: 1340 nM
Ki [6]: 891 nM
